Results published in patent US7358056B1, “Methods for modulating signal transduction mediated by TGF-β and related proteins” (Signal Pharmaceuticals, priority 1999, dated 2008).
Where a SMILES comes first, the peptide text is derived from it. Where no end group is shown, it is not given here. The star is where a group is joined. Biotin = O=C1N[C@H]2[C@H](CS[C@H]2CCCCC(=O)*)N1; Ahx = NCCCCCC(=O)O

Assays:
WWP1 WW domains = test: TRF binding assay of biotinylated PY motif peptides to GST-WW domain fusions; conditions: for Interaction with WWP1 WW domains (TRF, peptide titration): GST-WW domains coated at 30 μg/mL overnight
Procedure: Each domain was individually expressed as a GST fusion protein. A TRF binding assay was used to evaluate interactions of PY motif peptides with these domains or GST alone. WW domains were bound to a 96-well polystyrene assay plate (Costar) overnight at 4° C. in a 200 mM carbonate buffer (Pierce, Rockford, Ill.) at different concentrations (0, 1, 3, 10 μg/mL). Unbound WW domain was washed away with distilled, deionized water and the plates were blocked with 1% BSA/carbonate buffer for 2 hours at room temperature. The plates were then washed with Tris/TWEEN® buffer: 50 mM Tris pH 7.5, 100 mM NaCl, 1 mM EDTA, 1% BSA, 1 mM DTT, 0.1% TWEEN® 20 detergent, protease inhibitor cocktail (Boehringer-Mannheim).
PY motif peptides were synthesized with a C6-linker and biotin tag.
These biotinylated peptides were solvated in Tris/TWEEN® buffer and added to the assay plates (30 μM). The plates were incubated at 4° C. for varying amounts of capture time. The plates were then washed with PBS/0.1% TRITON® X-100 detergent and probed for 1 hour at room temperature with 1 μg/mL Europium-labeled streptavidin (DELFIA; Wallac Oy, Turku, Finland) in DELFIA Assay Buffer/0.1% Triton X100. The unbound Europium-labeled streptavidin was washed with PBS/0.1% TRITON® X-100 detergent. Europium was released for time-resolved fluorescence measurements with the DELFIA Enhancement Buffer. Measurements were made on either the DELFIA 1234 or Victor fluorometers.
Smad PY motif peptides from Smad 1, 2, 3, 5, 6 and 7 (Table 1) were then evaluated with the WW domains from WWP1 (FIGS. 6A-6D and 7A-7B). The GST-WW domain fusion proteins and GST alone were coated at 30 μg/mL overnight. After blocking the wells with BSA, the WW domain peptides were titrated with the Smad PY motif peptides.

[1] = tested on: E1 and E2s (ubc5c and ubc7); test: Coupled ubiquitin assay, ubiquitination of active site cysteines of E1 and E2; assay type: biochemical; conditions: 20 mM DTT
Procedure: Recombinant E1 (ubc5c) and E2 (ubc7) components were obtained from BostonBiochem (Cambridge, Mass.). Radiolabeled ubiquitin was generated by PKA-mediated incorporation of [^32P]-phosphate from […] to the PKA site of the GST-Ub fusion protein (pGEX KG expression vector). The ubiquitin assay buffer (UbB) was as follows: 50 mM Tris pH 7.6, 1 mM ATP, 0.2 mM EDTA, 5 mM MgCl2, 1 unit inorganic pyrophosphatase, 0.005% TRITON® X-100 detergent and 1 μM staurosporine. In a 0.030 mL reaction, the following components were present: 50-200 ng E1, 0.1-1 μg E2 and 5 μg GST-Ub. […] Reactions were analyzed by SDS-PAGE. The ubiquitination of active site cysteine residues of E1 and E2s (ubc Sc and ubc 7) was observed (FIGS. 9A-9C).

Smad1 = test: In vivo ubiquitination of Smad1 in transfected COS cells (immunoprecipitation, Western); assay type: cell-based; conditions: COS cells treated with LLF, with or without BMP
Procedure: To assess the in vivo ubiquitination of Smad1, a Smad1 expression vector was transfected into COS cells. The transfected cells were treated with BMP and the proteasome inhibitor LLF, as described above. The cells were then lysed and equal amounts of protein were used for immunoprecipitation using anti-HA antibody, to precipitate tagged-Smad1 protein. The immunoprecipitated Smad1 was run on SDS-PAGE, followed by a Western blot using anti-HA antibody or anti-ubiquitin antibody (BAbCo).

HA-tagged Smad1 = test: BMP-induced Smad1 degradation in transfected COS cells (Western, anti-HA); assay type: cell-based; conditions: 100 ng BMP 4 hours, 50-100 μM LLF
Procedure: HA-tagged Smad1 expression vector was transfected into COS cells. The transfected cells were then treated with 100 ng BMP for 4 hours in the absence or presence of 50-100 μM of the proteasome inhibitor Leu-Leu-Phe (LLF). The cells were lysed and equal amount of protein was loaded in each lane. Western analysis was performed using anti-HA antibody (BAbCo, Berkeley, Calif.).

Interaction with WWP1 WW domains (TRF, peptide titration) (WWP1 WW domains)	Compound	further results
measurable interactions	GPESPPPPYSRLSP (SEQ ID NO:21) (also: biotinylated) [Smad 6, biotinylated Smad6 PY motif peptide]	
no measurable interaction	IPETPPPGYISEDG (SEQ ID NO:24) (also: biotinylated) [Smad 2, biotinylated Smad2 PY motif peptide]	
measurable interactions	PADTPPPAYMPPDD (SEQ ID NO:23) (also: biotinylated) [Smad 5, biotinylated Smad5 PY motif peptide]	

The next lines start with the compound.

Compound	Interaction with WWP1 WW domains (TRF, peptide titration) (WWP1 WW domains)	further results
AGLTPPPGYLSEDG (SEQ ID NO:25) (also: biotinylated) [Smad 3, biotinylated Smad3 PY motif peptide]	no measurable interaction	
O[C@@H](CS)[C@@H](O)CS [DTT]		Formation of thioester intermediates (ubiquitinated E1 and E2) [1]: prevented the formation of the thioester intermediates
CC(C)C[C@H](NC(=O)[C@@H](N)CC(C)C)C(=O)N[C@@H](Cc1ccccc1)C(=O)O [LLF, Leu-Leu-Phe] (H-Leu-Leu-Phe-OH)		Accumulation of high molecular weight ubiquitinated Smad1 (Smad1): accumulated more high molecular weight, ubiquitinated-Smad1 protein; Effect on BMP-induced Smad1 degradation (HA-tagged Smad1): blocks BMP-induced Smad1 degradation
{Biotin-Ahx}-HPGTPPPPYTVGPG-NH2 (SEQ ID NO:28) [WBP1, reference compound]		Binding to WWP1 WW domains (TRF) (WWP1 WW domains; peptide 30 μM, WW domains coated at 0, 1, 3, 10 μg/mL, GST alone as control): bound specifically
{Biotin-Ahx}-PADTPPPAYLPPED-NH2 (SEQ ID NO:22) [Smad 1]	no measurable interaction	
